Assay results from patent publication US20060127505A1, “Anti-inflammatory formulations” (priority 2002, published 2006).

Tests used:
[1] = tested on: CD3+HLA-DR+ lymphocytes in human PBMC; experiment: PHA-mediated induction of CD3+HLA-DR+ lymphocytes in human PBMC (Example 8); assay type: cell-based; details: PHA 50 μg/ml, 24 hours
Protocol: (§1) Cells from 3-12 asthma patients were cultured 24 hours with 50 μg/ml PHA. PBMC evaluated by 2-color flow cytometry were gated for CD3+ and analyzed for CD3+CD25+ or CD3+HLA-DR+ as a percentage of the CD3+ population. Results are reported as stimulation indices (SI) calculated as the ratio of % CD3+CD25+ cells or % CD3+HLA-DR+ cells in fully-stimulated cultures to % CD3+CD25+ or % CD3+HLA-DR+ respectively in cells treated with PHA plus ASX, GB, or combinations thereof.

PMA/I-treated human PBMC = experiment: Inflammation-associated T cell surface antigens (CD25, CD54) in PMA/I-treated human PBMC, two-color flow cytometry; assay type: cell-based
Protocol: In vitro studies indicate that astaxanthin suppresses expression of inflammation-associated T cell surface antigens in PMA/I-treated human PBMC. […]
Analysis of blood for representation by selected lymphocyte subpopulations was conducted by two-color flow cytometry.

[2] = Allergy symptoms in an allergy patient; assay type: in vivo, human
Protocol: Astaxanthin or astaxanthin plus a cetirizine together was administered to an allergy patient.

[3] = tested on: CD3+CD25+ lymphocytes in human PBMC; experiment: PHA-mediated induction of CD3+CD25+ lymphocytes in human PBMC (Example 8); assay type: cell-based; details: PHA 50 μg/ml, 24 hours
Protocol: as §1

[4] = tested on: cAMP and cGMP concentrations in the lung tissue; experiment: Ovalbumin-induced asthma in guinea pigs: cAMP and cGMP in lung tissue (radioimmunoassay); assay type: in vivo, guinea pig; details: lung tissue 24 hours after OV challenge
Protocol: The effect combinations of vitamin C, astaxanthin, and ginkolide on asthma-associated disease parameters ovalbumin(OA)-induced asthma in guinea pigs was evaluated. Twenty-four hours following OA challenge, animals are sacrificed and numbers of inflammatory cells (eosinophils, neutrophils, macrophages) are measured in bronchoalveolar lavage (BAL) fluid; and cAMP and cGMP concentrations in the lung tissue. The experiments were carried out as follows. Male Hartley guinea pigs (250-350 g) were sensitized by intramuscular injections of 0.35 ml of a 5% (W/V) ovalbumin (OA)/saline solution into each thigh on days 1 and 4. Guinea pigs were ready for asthmatic challenge after 25 days of ovalbumin injection. Asthmatic challenge was carried out with ovalbumin aerosol, and bronchoalveolar lavage (BAL) was done 24 hours later. The numbers of eosinophils, neutrophils, and macrophages in the BAL fluid were counted. Biopsies from lung tissues, cAMP and cGMP were measured using commercially available radioimmunoassay kits (Amersham). Immediately after sampling, lung biopsies were frozen by means of a Wollenberger clamp prechilled in liquid nitrogen. Samples were powdered with a pestle and mortar in liquid nitrogen and trichloro acetic acid (TCA) was added to the powdered frozen samples ([…] of tissue). Samples were further homogenized in the frozen TCA in the braying mortar and then centrifuged at 14,000×g for 10 min at 4° C. The supernatants were extracted 6 times in water-saturated diethylether, evaporated and assayed for cGMP by radioimmunoassay using liquid scintillation counter (Packard, Tri-Carb 2100TR). The dose-responsive effect of AX, EGb761, and vitamin C administered independently for suppression of asthma-associated parameters in allergen-induced, asthmatic guinea pigs was determined. Ibuprophen (IB) was used as the positive control. Concentration of inflammatory cells in bronchoalveolar lavage (BAL) fluid and levels of cAMP and cGMP in lung tissue were measured in guinea pigs 24 hours following challenge with OV. […] The dose-responsive effect of AX, EGb761, and vitamin C administered in combination for suppression of asthma-associated parameters in allergen-induced, asthmatic guinea pigs was determined. The combination of these three components was given each day for each guinea pig as a “cocktail”. Concentration of inflammatory cells in bronchoalveolar lavage (BAL) fluid and levels of cAMP and cGMP in lung tissue were measured in guinea pigs 24 hours following challenge with OV.

TNF-α = TNF-α expression by PHA-stimulated human PBMC, ELISA of supernatant; assay type: cell-based; details: PHA 50 μg/ml, 24 hours; 10^−6 M
Protocol: PBMC (2×10^6/ml) from 2 donors were stimulated with 50 μg/ml, PHA; or with astaxanthin (10^−6 M); or with the ginkgolide BN52021 (GB) (10^−4 M); or with a combination of astaxanthin (10^−6 M) plus GB (10^−4 M); or with media. Cells were cultured 24 hours at 37° C., 5% CO2 and analyzed by ELISA for supernatant concentration of TNF-α. Each data point is the mean of triplicate samples.

For CC1=C(/C=C/C(C)=C/C=C/C(C)=C/C=C/C=C(C)/C=C/C=C(C)/C=C/C2=C(C)C(=O)[C@@H](O)CC2(C)C)C(C)(C)C[C@H](O)C1=O [astaxanthin, 3,3′-dihydroxy-4,4′-diketo-B-carotene], the “CD3+HLA-DR+ Stimulation Index” value ([1]; 10^−4 M) was 0.85 ± 0.18, the “CD3+HLA-DR+ Stimulation Index” value ([1]; 10^−5 M) was 0.79 ± 0.19 and the “CD3+HLA-DR+ Stimulation Index” value ([1]; 10^−6 M) was 0.83 ± 0.23. The “CD3+HLA-DR+ Stimulation Index” value ([1]; 10^−7 M) was 0.71 ± 0.23, the “CD3+HLA-DR+ Stimulation Index” value ([1]; 10^−8 M) was 0.68 ± 0.16 and the “% CD3+CD54+ cells” value (PMA/I-treated human PBMC; Subject A, first column, 10^-6 M) was 4.2%. For the same compound, the “% CD3+CD54+ cells” value (PMA/I-treated human PBMC; Subject A, first column, 10^-7 M) was 8.4%, the “% CD3+CD54+ cells” value (PMA/I-treated human PBMC; Subject A, second column, 10^-6 M) was 3.3% and the “% CD3+CD54+ cells” value (PMA/I-treated human PBMC; Subject A, second column, 10^-7 M) was 10.6%. For the same compound, the “% CD3+CD54+ cells” value (PMA/I-treated human PBMC; Subject B, first column, 10^-6 M) was 6.3%, the “% CD3+CD54+ cells” value (PMA/I-treated human PBMC; Subject B, first column, 10^-7 M) was 16.2% and the “% CD3+CD54+ cells” value (PMA/I-treated human PBMC; Subject B, second column, 10^-6 M) was 10.3%. The “% CD3+CD54+ cells” value (PMA/I-treated human PBMC; Subject B, second column, 10^-7 M) was 21.9%, the “alleviation of allergy symptoms such as itching” value [2] was “did not result in alleviation of allergy symptoms” and the “CD3+CD25+ Stimulation Index” value ([3]; 10^−4 M) was 0.49 ± 0.09. For the same compound, the “CD3+CD25+ Stimulation Index” value ([3]; 10^−5 M) was 0.95 ± 0.06, the “CD3+CD25+ Stimulation Index” value ([3]; 10^−6 M) was 0.96 ± 0.10 and the “CD3+CD25+ Stimulation Index” value ([3]; 10^−7 M) was 0.90 ± 0.05. For the same compound, the “CD3+CD25+ Stimulation Index” value ([3]; 10^−8 M) was 0.95 ± 0.05, the cAMP ([4]; 5 mg/kg) was 6.9 ± 0.5 pmol (mg protein)^−1 and the cGMP ([4]; 5 mg/kg) was 1.2 ± 0.1 pmol (mg protein)^−1. For the same compound, the cAMP ([4]; 10 mg/kg) was 8.1 ± 0.8 pmol (mg protein)^−1, the cGMP ([4]; 10 mg/kg) was 1.4 ± 0.1 pmol (mg protein)^−1 and the cAMP ([4]; 30 mg/kg) was 9.6 ± 0.8 pmol (mg protein)^−1. The cGMP ([4]; 30 mg/kg) was 1.8 ± 0.3 pmol (mg protein)^−1, the cAMP ([4]; 100 mg/kg) was 12.6 ± 0.8 pmol (mg protein)^−1 and the cGMP ([4]; 100 mg/kg) was 2.8 ± 0.3 pmol (mg protein)^−1. For the same compound, the cAMP ([4]; 200 mg/kg) was 12.1 ± 0.5 pmol (mg protein)^−1, the cGMP ([4]; 200 mg/kg) was 2.7 ± 0.2 pmol (mg protein)^−1 and the TNF-alpha (TNF-α) was 781.34 pg/mL.
